Results on six compounds are retold here after US20090270407A1, “FUNGICIDAL ISOXAZOLIDINES” (E. I. DU PONT DE NEMOURS AND COMPANY, priority 2008, published 2009).

Like-named read-outs stand apart in the source and are kept apart here. Marks after values point to notes of the source that are not given here.

Common to all, as to details: 100 = 100 % disease control, 0 = no disease control relative to controls
One assay deals with Septoria tritici. Kind of assay: Test D: wheat leaf blotch, preventive spray on wheat seedlings, visual disease rating. Format: in vivo. An excerpt: A dash (−) indicates no test results.
Another assay concerns Phytophthora infestans. Format: in vivo.
The subject of assay [1] is Puccinia recondita f. sp. tritici. Nature of the assay: Test B: wheat leaf rust, preventive spray on wheat seedlings, visual disease rating.
From the text: (§1) General protocol for preparing test suspensions for Tests A-I: The test compounds were first dissolved in acetone in an amount equal to 3% of the final volume and then suspended at the desired concentration (in ppm) in acetone and purified water (50/50 mix) containing 250 ppm of the surfactant Trem® 014 (polyhydric alcohol esters). The resulting test suspensions were then used in Tests A-I. Spraying a 200 ppm test suspension to the point of run-off on the test plants was the equivalent of a rate of 500 g/ha.
The test suspension was sprayed to the point of run-off on wheat seedlings. The following day the seedlings were inoculated with a spore suspension of Puccinia recondita f. sp. tritici (the causal agent of wheat leaf rust) and incubated in a saturated atmosphere at 20° C. for 24 h, and then moved to a growth chamber at 20° C. for 7 days, after which time visual disease ratings were made.
(§2) All results are for 200 ppm except where followed by “*” which indicates 40 ppm.
The next assay relates to Botrytis cinerea. Nature of the assay: Test E: tomato Botrytis, preventive spray on tomato seedlings, visual disease rating.
A further assay deals with Septoria nodorum. Nature of the assay: Test C: wheat glume blotch, preventive spray on wheat seedlings, visual disease rating.
In assay [2] the test system is Erysiphe graminis f. sp. tritici. Nature of the assay: Test A: wheat powdery mildew, preventive spray on wheat seedlings, visual disease rating.
From the text: (§3) General protocol for preparing test suspensions for Tests A-I: The test compounds were first dissolved in acetone in an amount equal to 3% of the final volume and then suspended at the desired concentration (in ppm) in acetone and purified water (50/50 mix) containing 250 ppm of the surfactant Trem® 014 (polyhydric alcohol esters). The resulting test suspensions were then used in Tests A-I. Spraying a 200 ppm test suspension to the point of run-off on the test plants was the equivalent of a rate of 500 g/ha. (An asterisk “*” next to the rating value indicates a 40 ppm test suspension.)
The test suspension was sprayed to the point of run-off on wheat seedlings. The following day the seedlings were inoculated with a spore dust of Erysiphe graminis f. sp. tritici (the causal agent of wheat powdery mildew) and incubated in a growth chamber at 20° C. for 8 days, after which time visual disease ratings were made.
Another assay relates to Alternaria solani. Kind of assay: Test F: tomato early blight, preventive spray on tomato seedlings, visual disease rating.
The test system of a further assay is Plasmopara viticola. Kind of assay: Test I: grape downy mildew, spray on grape seedlings after inoculation, visual disease rating.
The next assay relates to Rhizoctonia oryzae. Nature of the assay: Test G: turf brown patch, preventive spray on creeping bent grass seedlings, visual disease rating.

From the text for Botrytis cinerea: as §1
The test suspension was sprayed to the point of run-off on tomato seedlings. The following day the seedlings were inoculated with a spore suspension of Botrytis cinerea (the causal agent of tomato Botrytis) and incubated in saturated atmosphere at 20° C. for 48 h, and then moved to a growth chamber at 24° C. for 3 additional days, after which time visual disease ratings were made.
as §2
From the text for Plasmopara viticola: as §3
Grape seedlings were inoculated with a spore suspension of Plasmopara viticola (the causal agent of grape downy mildew) and incubated in a saturated atmosphere at 20° C. for 24 h. After a short drying period, the test suspension was sprayed to the point of run-off on the grape seedlings and then moved to a growth chamber at 20° C. for 6 days, after which time the test units were placed back into a saturated atmosphere at 20° C. for 24 h. Upon removal, visual disease ratings were made.
as §2
Method for Rhizoctonia oryzae: The test suspension was sprayed to the point of run-off on creeping bent grass seedlings. The following day the seedlings were inoculated with a spore suspension of Rhizoctonia oryzae (the causal agent of turf brown patch) and incubated in a saturated atmosphere at 27° C. for 48 h, and then moved to a growth chamber at 27° C. for 3 days, after which time visual disease ratings were made.
A dash (−) indicates no test results. All results are for 200 ppm except where followed by “*” which indicates 40 ppm.

Consider `CN1OC(c2cccnc2)(C(F)(F)F)CC1c1ccc(-c2ccccc2)cc1` (racemic) [Compound 24], for which the “Test D disease control rating” value in the assay on Septoria tritici (200 ppm) was determined as 100%. Further, the “Test H disease control rating” value in the assay with Phytophthora infestans (200 ppm) is 0%. Further, the “Test B disease control rating” value in [1] (200 ppm) is given as 45%. In the assay with Botrytis cinerea (200 ppm), the “Test E disease control rating” value worked out at 0%. For the same compound, the “Test C disease control rating” value with Septoria nodorum (200 ppm) was determined as 0%. Besides, in [2] (200 ppm), the “Test A disease control rating” value is recorded as 99%. Also, the “Test F disease control rating” value in the assay on Alternaria solani (200 ppm) worked out at 0%. In addition, the “Test I disease control rating” value in the assay on Plasmopara viticola (200 ppm) turned out to be 0%. The “Test G disease control rating” value with Rhizoctonia oryzae (200 ppm) came out at 0%.
With `CN1OC(c2cccnc2)(C(F)(F)F)CC1c1ccc(-c2ccccc2)cc1` (racemic) [Compound 23], in the assay on Septoria tritici (200 ppm), the “Test D disease control rating” value stood at 98%. Moreover, in the assay on Phytophthora infestans (200 ppm), the “Test H disease control rating” value is 0%. Moreover, the “Test B disease control rating” value in assay [1] (200 ppm) amounted to 0%. In addition, the “Test E disease control rating” value in the assay with Botrytis cinerea (200 ppm) amounted to 0%. In the assay on Septoria nodorum (200 ppm), the “Test C disease control rating” value was found to be 97%. Further, in assay [2] (200 ppm), the “Test A disease control rating” value was found to be 99%. In the assay on Alternaria solani (200 ppm), the “Test F disease control rating” value is 4%. Further, in the assay with Plasmopara viticola (200 ppm), the “Test I disease control rating” value is reported as 0%. The “Test G disease control rating” value with Rhizoctonia oryzae (200 ppm) was 0%.
Turning to `CN1O[C@](C)(c2cccnc2)C[C@@H]1c1ccc(-n2cc(Br)cn2)cc1` (relative stereo) [Compound 37, rel-3-[(3R,5S)-3-[4-(4-bromo-1H-pyrazol-1-yl)phenyl]-2,5-dimethyl-5-isoxazolidinyl]pyridine], the “Test D disease control rating” value in the assay with Septoria tritici (40 ppm (marked *)) is on record as 99* %. Further, in the assay with Phytophthora infestans (40 ppm (marked *)), the “Test H disease control rating” value is 0* %. For the same compound, in [1] (40 ppm (marked *)), the “Test B disease control rating” value is 74* %. Moreover, the “Test E disease control rating” value with Botrytis cinerea (200 ppm) is 94%. Also, in the assay with Septoria nodorum (40 ppm (marked *)), the “Test C disease control rating” value is 99* %. In assay [2] (40 ppm (marked *)), the “Test A disease control rating” value is reported as 95* %. Also, the “Test F disease control rating” value in the assay with Alternaria solani (40 ppm (marked *)) is on record as 93* %. The “Test I disease control rating” value in the assay on Plasmopara viticola (40 ppm (marked *)) was 0* %. Besides, in the assay with Rhizoctonia oryzae (40 ppm (marked *)), the “Test G disease control rating” value was 0* %.
As to `CN1O[C@@](C)(c2cnccn2)C[C@@H]1c1ccc(-c2ccccc2)cc1` (relative stereo) [Compound 22], the “Test D disease control rating” value with Septoria tritici (40 ppm (marked *)) is given as 97* %. For the same compound, the “Test H disease control rating” value with Phytophthora infestans (40 ppm (marked *)) is listed as 0* %. In assay [1] (40 ppm (marked *)), the “Test B disease control rating” value was 0* %. Besides, the “Test E disease control rating” value in the assay on Botrytis cinerea (40 ppm (marked *)) is on record as 0* %. Moreover, the “Test C disease control rating” value in the assay on Septoria nodorum (40 ppm (marked *)) is 0* %. Also, in [2] (40 ppm (marked *)), the “Test A disease control rating” value is listed as 86* %. Also, the “Test F disease control rating” value in the assay with Alternaria solani (40 ppm (marked *)) was 0* %. Besides, the “Test I disease control rating” value in the assay with Plasmopara viticola (40 ppm (marked *)) is on record as 0* %. Also, in the assay with Rhizoctonia oryzae (40 ppm (marked *)), the “Test G disease control rating” value is on record as 0* %.
`Cc1ccc(-c2ccc(C3CC(c4cccnc4)(C(F)(F)F)ON3C)cc2)cc1` (racemic) [Compound 26]: the “Test D disease control rating” value with Septoria tritici (40 ppm (marked *)) is 75* %. For the same compound, the “Test H disease control rating” value in the assay with Phytophthora infestans (40 ppm (marked *)) is 0* %. In addition, the “Test B disease control rating” value in assay [1] (40 ppm (marked *)) is 0* %. For the same compound, the “Test E disease control rating” value in the assay on Botrytis cinerea (40 ppm (marked *)) was 0* %. For the same compound, the “Test C disease control rating” value in the assay with Septoria nodorum (40 ppm (marked *)) is given as 0* %. The “Test A disease control rating” value in assay [2] (40 ppm (marked *)) is listed as 96* %. In addition, in the assay with Alternaria solani (40 ppm (marked *)), the “Test F disease control rating” value is 0* %. Also, the “Test I disease control rating” value in the assay with Plasmopara viticola (40 ppm (marked *)) was 0* %. Moreover, the “Test G disease control rating” value with Rhizoctonia oryzae (40 ppm (marked *)) is 0* %.
For `CN1OC(C)(c2cccnc2)CC1c1ccc(Oc2ccc(F)cc2)cc1` (racemic) [Compound 20], the “Test D disease control rating” value in the assay on Septoria tritici (200 ppm) is 92%. Also, the “Test H disease control rating” value in the assay on Phytophthora infestans (200 ppm) is recorded as 0%. Besides, the “Test B disease control rating” value in [1] (200 ppm) is reported as 92%. Besides, in the assay with Botrytis cinerea (200 ppm), the “Test E disease control rating” value is given as 0%. The “Test C disease control rating” value in the assay with Septoria nodorum (200 ppm) is listed as 78%. Also, the “Test A disease control rating” value in assay [2] (200 ppm) was 91%. In the assay on Alternaria solani (200 ppm), the “Test F disease control rating” value is reported as 0%. Also, the “Test I disease control rating” value with Plasmopara viticola (200 ppm) is given as 0%. For the same compound, the “Test G disease control rating” value with Rhizoctonia oryzae (200 ppm) is 0%.
